{
  "source": "patent EP0440787B1",
  "about": "“COMPOUNDS OF 1,4-BIS(AMINO)BENZO(G)PHTHALAZENE” (CONSEJO SUPERIOR DE INVESTIGACIONES CIENTIFICAS, priority 1989, dated 1990)",
  "key": {"[1]": {"test_system": "HeLa cell lines (from a human uterine cervix carcinoma)", "experiment": "Cytostatic and cytocidal activity in vitro, HeLa cell cultures", "format": "cell-based", "protocol": "(§1) The cytostatic and cytocidal activity of BBPh has been evaluated employing HeLa cell lines (from a human uterine cervix carcinoma), ADLD-clon (from a human malignant melanona) and a semicontinuos LMMB cell line (from normal human tonsilar fibroblasts).\n(§2) In order to perform both \"in vitro\" and \"in vivo\" experiments a concentrated stock solution of BBPh in dimethyl sulfoxide (DMSO) was prepared. From it increasing diluted solutions in McCoy's R5aI grown medium supplemented with 5% human serum, 5% calf serum, 5% fetal bovine serum, 100 IU/mL penicillin, 100 ug/mL streptomycin and 16 ug/mL gentamycin were obtained.\n(§3) Serial dilutions of BBPh and the solvent were assayed in cultures seeded 24 hours before on 96-well \"Microtiter\" plates. The seeding was carried out by depositing 200 µL of cell suspension in growth medium in each well, adjusted to 3 x 10^5/mL HeLa cells, 9 x 10^5/mL ADLD-clon cells or 4 x 10^5/mL LMMB cells.\n(§4) The plates with different concentrations of BBPh and control solutions were incubated at 37°C in a humidily saturated air containing 5% CO2.\n(§5) Then the plates were fixed and stained to stimate the effects of BBPh under the conditions described by Alvarez (1986) (11) taken Adriamycin as antitumoral compound of reference. […]"}, "[2]": {"test_system": "ADLD-clon (from a human malignant melanona)", "experiment": "Cytostatic and cytocidal activity in vitro, ADLD-clon cell cultures", "format": "cell-based", "protocol": "as §1, §2, §3, §4, §5"}, "[3]": {"test_system": "LMMB cell line (from normal human tonsilar fibroblasts)", "experiment": "Cytostatic and cytocidal activity in vitro, LMMB normal cell cultures", "format": "cell-based", "settings": "Fibroblast", "protocol": "as §1, §2, §3, §4, §5"}, "[4]": {"settings": "clinical drugs, from reference (12); cited from earlier work"}, "[5]": {"test_system": "Trichomonas vaginalis (Srain G)", "experiment": "microbe, parasite or virus in culture", "settings": "for MCC: read-out: Trichomonacidal activity MCC; for MIC: read-out: Trichomonacidal activity MIC", "method": "The cultures of the strains of Trichomonas vaginalis (Srain G) used as experimental model were grown in Diamond Medium (TYM) without agar (100.000 organisms/mL). […] Minimal inhibition concentration (MIC) and Minimal cytocidal concentration (MCC) were established in accordance with the definitions proposed by Escario et al. (19)."}, "[6]": {"test_system": "Ehrlich ascites cancer cells", "experiment": "In vivo antitumoral activity, subcutaneous transplant of Ehrlich ascites cancer cells in mice", "design": "species or system swiss mice", "protocol": "Five groups of six 2-month male swiss mice weighing 25 grams were disposed. Each animal received a transplant of 10^5 Ehrlich ascites cancer cells by the subcutaneous route in the interscapular region. Fourteen days later, when the tumors were evident and measured more than 3 millimeter in diameter, the animals were submitted to the different treatments.\nGroup 1 received a first intraperitoneal dose of 300 µL of DMSO followed by equal subcutaneous doses, the next three consecutive days.\nGroup 2 received a single intraperitoneal dose of 100 µg of BBPh solubilized in 300 µL of DMSO, followed by equal subcutaneous doses the next three consecutive days.\nGroup 3 received a single intraperitoneal dose of 500 µg of BBPh in 300 µL of DMSO.\nGroup 4 received a single intraperitoneal dose of 1.000 µg of BBPh in 300 µL of DMSO.\nGroup 5 received a single subcutaneous dose of 4.000 µg BBPh in an oily solution."}, "[7]": {"experiment": "50 per 100 lethal dose (LD50) of BBPh and toxicity in mice", "format": "in vivo", "settings": "DMSO as solvent"}, "[8]": {"experiment": "pKa of BBPh", "format": "physicochemical", "source_text": "Some anticancer drugs such as mitomycin C and antinomycin D which interact with nucleic acids have shown activity against Trypanosoma cruzi (16). […] Following a similar behaviour the 1,4-bis(buthylamino)benzo[g] phthalazine (BBPh) which is able to form 1,4-bis(buthylamino) benzo[g]phthalazinium cations at physiological PH (PKa of BBPh = 8.6) and is a potential intercalating agent has shown both, antineoplasic and trypanosomicide activities."}, "[9]": {"test_system": "T. cruzi", "experiment": "Trypanosomicide activity in vitro in infected NMRI mice blood", "format": "cell-based, Trypanosoma cruzi", "settings": "24 h at 4°C; for N° Tryp/mL: controls Cd 298, Ct 247"}, "[10]": {"settings": "group 5: BBPh in oily solution 1 x 4.0 mg s.c. (160 mg/kg)"}, "[11]": {"settings": "overall dose 40 mg/Kg: single i.p. dose of 1.0 mg in DMSO"}},
  "note": "Where two headings read alike, the source gives them in different places. Marks after values point to notes of the source that are not given here. Starred links: 1 amine or outer side, 2 acyl side, 3 side chain; linkers in the order of their positions; H or OH if unused. Positions of bridges follow the written chain, without caps; N, C: chain ends. Non-standard residues stand in square brackets, D forms with d. Residues, ends and D or L forms follow the SMILES beside them. Chains are numbered I, II in the order given. Actinocin(9to1) = Cc1c2oc3c(C)ccc(C(=O)[*:1])c3nc-2c(C(=O)[*:2])c(N)c1=O; NMeV = CN[C@H](C(=O)O)C(C)C; Sar = CNCC(=O)O",
  "data": [
    {"smiles": "COc1cccc2c1C(=O)c1c(O)c3c(c(O)c1C2=O)C[C@@](O)(C(=O)CO)C[C@@H]3O[C@H]1C[C@H](N)[C@H](O)[C@H](C)O1", "note": "[Adriamycin, reference compound]", "values": [
      {"measurement": "IC50", "setting": "[1]; read-out: ID50", "result": 0.33, "unit": "µg/mL"},
      {"measurement": "IC50", "setting": "[2]; read-out: ID50", "result": 0.33, "unit": "µg/mL"},
      {"measurement": "IC50", "setting": "[3]; read-out: ID50", "result": 0.07, "unit": "µg/mL"}
    ]},
    {"smiles": "COc1cccc2c1C(=O)c1c(O)c3c(c(O)c1C2=O)C[C@@](O)(C(C)=O)C[C@@H]3O[C@H]1C[C@H](N)[C@H](O)[C@H](C)O1", "note": "[Daunomycin]", "values": [
      {"measurement": "LD50", "setting": "[4]", "result": 9.2, "unit": "mg/kg"}
    ]},
    {"smiles": "Cc1c2oc3c(C)ccc(C(=O)N[C@@H]4C(=O)N[C@H](C(C)C)C(=O)N5CCC[C@H]5C(=O)N(C)CC(=O)N(C)[C@@H](C(C)C)C(=O)O[C@@H]4C)c3nc-2c(C(=O)N[C@@H]2C(=O)N[C@H](C(C)C)C(=O)N3CCC[C@H]3C(=O)N(C)CC(=O)N(C)[C@@H](C(C)C)C(=O)O[C@@H]2C)c(N)c1=O", "note": "[Actinomicin D] (I: T[dV]P[Sar][NMeV] / II: T[dV]P[Sar][NMeV]; ester I:1-I:C, II:1-II:C; linker I:N-II:N via Actinocin(9to1))", "values": [
      {"measurement": "LD50", "setting": "[4]", "result": 0.095, "unit": "mg/kg"}
    ]},
    {"smiles": "Cc1ncc([N+](=O)[O-])n1CCO", "note": "[Metronidazole, reference compound]", "values": [
      {"measurement": "MCC", "setting": "[5]", "result": 8, "unit": "µg/mL"},
      {"measurement": "MIC", "setting": "[5]", "result": "4 to 8", "unit": "µg/mL"}
    ]},
    {"smiles": "CC[C@]1(O)C[C@H]2CN(CCc3c([nH]c4ccccc34)[C@@](C(=O)OC)(c3cc4c(cc3OC)N(C=O)[C@H]3[C@@](O)(C(=O)OC)[C@H](OC(C)=O)[C@]5(CC)C=CCN6CC[C@]43[C@@H]65)C2)C1", "note": "[Vincristine]", "values": [
      {"measurement": "LD50", "setting": "[4]", "result": 4.5, "unit": "mg/kg"}
    ]},
    {"smiles": "CCCCNc1nnc(NCCCC)c2cc3ccccc3cc12", "note": "[BBPh, 1,4-bis(n-butylamino)benzo[g]phthalazine]", "values": [
      {"measurement": "IC50", "setting": "[1]; concentration producing death or growth inhibition of 50% of the cells, read-out: ID50 (the source's name)", "result": 0.67, "unit": "µg/mL"},
      {"measurement": "IC50", "setting": "[2]; ADLD-clon, concentration producing death or growth inhibition of 50% of the cells, read-out: ID50 (the source's name)", "result": 0.67, "unit": "µg/mL"},
      {"measurement": "IC50", "setting": "[3]; LMMB normal cells, concentration producing death or growth inhibition of 50% of the cells, read-out: ID50 (the source's name)", "result": 1.08, "unit": "µg/mL"},
      {"measurement": "T/S", "setting": "[6]; group 2: BBPh in DMSO 1 x 0.1 mg i.p. + 3 x 0.1 mg s.c.", "result": "6/5"},
      {"measurement": "SURVIVAL(DAYS) MST", "setting": "[6]; group 2: BBPh in DMSO 1 x 0.1 mg i.p. + 3 x 0.1 mg s.c., DMSO control 59", "result": 84, "unit": "days"},
      {"measurement": "SURVIVAL(DAYS) MST", "setting": "[6]; [10]", "result": 86, "unit": "days"},
      {"measurement": "T/S", "setting": "[6]; [10]", "result": "5/5"},
      {"measurement": "Toxic death", "setting": "[6]; overall dose 16 mg/Kg: 0.1 mg i.p. then similar s.c. doses next three days, DMSO", "result": "1/6"},
      {"measurement": "T/C (%)", "setting": "[6]; overall dose 16 mg/Kg: 0.1 mg i.p. then similar s.c. doses next three days, DMSO, active when > 125%", "result": "142^f %"},
      {"measurement": "TST", "setting": "[6]; overall dose 16 mg/Kg: 0.1 mg i.p. then similar s.c. doses next three days, DMSO, control 59", "result": 84, "unit": "days"},
      {"measurement": "Toxic death", "setting": "[6]; overall dose 20 mg/Kg: single i.p. dose of 0.5 mg in DMSO", "result": "4/6"},
      {"measurement": "T/C (%)", "setting": "[6]; overall dose 20 mg/Kg: single i.p. dose of 0.5 mg in DMSO, active when > 125%", "result": "161^f %"},
      {"measurement": "TST", "setting": "[6]; overall dose 20 mg/Kg: single i.p. dose of 0.5 mg in DMSO, control 59", "result": 96, "unit": "days"},
      {"measurement": "T/C (%)", "setting": "[6]; [11]", "result": "Toxic"},
      {"measurement": "TST", "setting": "[6]; [11]", "result": 1, "unit": "days"},
      {"measurement": "Toxic death", "setting": "[6]; [11]", "result": "6/6"},
      {"measurement": "toxicity", "setting": "[7]; i.p., single dose of 20 mg/Kg", "result": "toxic"},
      {"measurement": "LD50", "setting": "[7]; mouse, in vivo, ip, BBPh", "result": 12, "unit": "mg/kg"},
      {"measurement": "pKa", "setting": "[8]", "result": 8.6},
      {"measurement": "N° Tryp/mL", "setting": "[9]; BBPh 75 µg/mL", "result": 0, "unit": "Tryp/mL"},
      {"measurement": "N° Tryp/mL", "setting": "[9]; BBPh 125 µg/mL", "result": 0, "unit": "Tryp/mL"},
      {"measurement": "N° Tryp/mL", "setting": "[9]; BBPh 250 µg/mL", "result": 0, "unit": "Tryp/mL"},
      {"measurement": "N° Tryp/mL", "setting": "[9]; BBPh 500 µg/mL", "result": 0, "unit": "Tryp/mL"},
      {"measurement": "N° Tryp/mL", "setting": "[9]; BBPh 1000 µg/mL", "result": 0, "unit": "Tryp/mL"},
      {"measurement": "parasitemia", "setting": "[9]; all samples, 1000 to 75 ug/mL", "result": "negative parasitemia"},
      {"measurement": "MCC", "setting": "[5]", "result": "10 to 25", "unit": "µg/mL"},
      {"measurement": "MIC", "setting": "[5]", "result": "5 to 10", "unit": "µg/mL"}
    ]}
  ]
}
